In general, IC50 refers to the concentration that gives 50% inhibition. Low readings indicate greater potency in that assay, high ones weaker potency in that assay.

The target in this assay is Skeletal Myofibril ATPase (Rabbit Psoas myofibrils). Description: Skeletal Myofibril ATPase Assay. The assay is classed as biochemical. Particulars: PK/LDH-coupled NADH absorbance at 340 nm. As for the experimental part:
Overview: Myosin ATPase activity was assessed by using a coupled reaction system, in which ADP generated by the myosin ATPase function was coupled to the disappearance of NADH through the pyruvate kinase/lactate dehydrogenase (PK-LDH) system. Myosin ATPase activity produces ADP, which was used as a substrate for PK to produce pyruvate and regenerate ATP. The pyruvate was then used as a substrate by LDH to oxidize NADH to NAD+. The rate of the reaction was monitored through the time-dependent disappearance of NADH using absorbance at 340 nm. Inhibition of ATPase activity by the assayed compounds was indicated by a reduced rate of NADH loss, relative to vehicle-treated controls, over the experimental time window. To assess the selectivity of the assayed compounds for skeletal myofibrils, the compounds were counter-screened in cardiac myofibrils.
Materials: The following stock solutions and reagents were used in the Skeletal Myofibril ATPase Assay:
Stock Solutions of pCa buffer. Combine PIPES, CaCl2, and EGTA solutions with 70 mL of water. Adjust pH to 7.0 and bring final volume to 100 mL.
Buffer A & Buffer B. Buffers were stored on ice until use.
Skeletal Myofibril ATPase Assay Procedure: BSA, ATP, NADH, PEP, and DTT solutions were thawed at room temperature, then transferred to ice. Pellet-frozen myofibrils (approximately twice the required volume) were transferred into a sufficiently large tube and capped. Myofibrils were thawed by rolling in a water bath for approximately 15 min at room temperature and cooled on ice. Buffers A and B were prepared by adjusting volumes as necessary for required number of wells and stored on ice. 0.5 μL of the compounds to be assayed were added into wells of a 384-well plate. Buffers A and B were mixed by inversion immediately prior to use, then 25 μL of each was dispensed using a Multidrop dispenser (Buffer A first, then Buffer B). The absorbance within the wells was measured at 340 nm, using a kinetic protocol in which the wells are read every 1.5-2 min for 1 h. The reaction rate was qualitatively assessed by subtracting the minimum absorbance value from the maximum value for each well, using either the SoftMax Pro plate reader software or a spreadsheet program such as Excel. Using GraphPad Prism 8.0, the data was normalized, with 100% activity defined as the absorbance change in the 1% DMSO vehicle wells and 0% assigned to no change in absorbance over the course of the experiment. The normalized data were fit to a variable-slope four-parameter logistic model, constraining the bottom to be 0 or greater. Compounds of Table 1 to 3 were tested and results of the assay appear in Table 4 herein. A=IC50 is less than or equal to 10 μM; B=IC50 is greater than 10 μM and less than 100 μM; C=IC50 is greater than 100 μM.
Molecule `O=c1ccc(-c2nc(-c3ccc(Cl)cc3)no2)cn1Cc1ccc(Cl)cc1` [Compound 122, 1-(4-chlorobenzyl)-5-(3-(4-chlorophenyl)-1,2,4-oxadiazol-5-yl)pyridin-2(1H)-one] had an IC50 of more than 120 µM. The molecule `O=c1ccc(-c2nc(-c3cccnc3)no2)nn1Cc1ccccc1` [Compound 67, 2-benzyl-6-(3-(pyridin-3-yl)-1,2,4-oxadiazol-5-yl)pyridazin-3(2H)-one] showed a half-maximal inhibitory concentration (IC50) of 10 to 100 µM.

In turn, `O=C(Cn1nc(-c2cccs2)ccc1=O)Nc1ccc(Cl)cc1Cl` [Compound 42, N-(2,4-dichlorophenyl)-2-(6-oxo-3-(thiophen-2-yl)pyridazin-1(6H)-yl)acetamide] yielded an IC50 of more than 100 µM. With `CCNC(=O)Cn1nc(-c2ncc(-c3cccc(Cl)c3)s2)ccc1=O` [Compound 25, 2-(3-(5-(3-chlorophenyl)thiazol-2-yl)-6-oxopyridazin-1(6H)-yl)-N-ethylacetamide], the half-inhibitory concentration (IC50) was not above 10 µM. Consider `O=c1ccc(-c2cccs2)nn1Cc1cccc(C(F)(F)F)c1` [Compound 59, 6-(thiophen-2-yl)-2-(3-(trifluoromethyl)benzyl)pyridazin-3(2H)-one], for which the IC50 was more than 100 µM. Under `CC(C)NC(=O)Cn1nc(-c2cccs2)ccc1=O` [Compound 49, N-isopropyl-2-(6-oxo-3-(thiophen-2-yl)pyridazin-1(6H)-yl)acetamide] stands more than 100 µM; under `CCNC(=O)Cn1nc(-c2nc(-c3cc(Cl)ccc3F)no2)ccc1=O` [Compound 1, 2-(3-(3-(5-chloro-2-fluorophenyl)-1,2,4-oxadiazol-5-yl)-6-oxopyridazin-1(6H)-yl)-N-ethylacetamide], not above 10 µM. The molecule `O=c1ccc(-c2nc(-c3ccccc3Cl)no2)cn1Cc1cccnc1` [Compound 110, 5-(3-(2-chlorophenyl)-1,2,4-oxadiazol-5-yl)-1-(pyridin-3-ylmethyl)pyridin-2(1H)-one] had an IC50 of 10 to 100 µM. Molecule `O=C(Cn1nc(-c2nnc(-c3cc(Cl)ccc3Cl)s2)ccc1=O)NC1CCC1` [Compound 18, N-cyclobutyl-2-(3-(5-(2,5-dichlorophenyl)-1,3,4-thiadiazol-2-yl)-6-oxopyridazin-1(6H)-yl)acetamide] gave a half-inhibitory concentration (IC50) not above 10 µM. Turning to `Cc1noc(-c2ccc(=O)n(Cc3cccc(F)c3)n2)n1` [Compound 72, 2-(3-fluorobenzyl)-6-(3-methyl-1,2,4-oxadiazol-5-yl)pyridazin-3(2H)-one], the IC50 was in the range of 10 to 100 µM. With `Cc1cccc(-c2noc(-c3ccc(=O)n(Cc4cncnc4)c3)n2)c1` [Compound 105, 1-(pyrimidin-5-ylmethyl)-5-(3-(m-tolyl)-1,2,4-oxadiazol-5-yl)pyridin-2(1H)-one] the figure was not above 10 µM; with `COc1ccccc1NC(=O)Cn1nc(-c2cccs2)ccc1=O` [Compound 40, N-(2-methoxypheny1)-2-(6-oxo-3-(thiophen-2-yl)pyridazin-1(6H)-yl)acetamide], 10 to 100 µM.

`CCNC(=O)Cn1nc(-c2nc(-c3ccc(F)c(F)c3)no2)ccc1=O` [Compound 8, 2-(3-(3-(3,4-difluorophenyl)-1,2,4-oxadiazol-5-yl)-6-oxopyridazin-1(6H)-yl)-N-ethylacetamide]: the IC50 is not above 10 µM. With `O=c1ccc(-c2nc(-c3ccccc3F)no2)cn1Cc1cccnc1` [Compound 111, 5-(3-(2-fluorophenyl)-1,2,4-oxadiazol-5-yl)-1-(pyridin-3-ylmethyl)pyridin-2(1H)-one], the half-maximal inhibitory concentration (IC50) is more than 120 µM.

On to `O=c1ccc(-c2nc(C3CC3)no2)cn1Cc1c(F)cccc1Cl` [Compound 123, 1-(2-chloro-6-fluorobenzyl)-5-(3-cyclopropyl-1,2,4-oxadiazol-5-yl)pyridin-2(1H)-one], for which the IC50 was more than 120 µM. For `O=C(Cn1nc(-c2cccs2)ccc1=O)Nc1ccc2cc[nH]c2c1` [Compound 48, N-(1H-indol-6-yl)-2-(6-oxo-3-(thiophen-2-yl)pyridazin-1(6H)-yl)acetamide], the IC50 is more than 100 µM. For `O=c1ccc(-n2cncn2)nn1Cc1cccc(Cl)c1` [Compound 78, 2-(3-chlorobenzyl)-6-(1H-1,2,4-triazol-1-yl)pyridazin-3(2H)-one], the IC50 fell in the range of 10 to 100 µM. For `O=C(Cn1nc(-c2nnc(-c3cccc(Cl)c3)s2)ccc1=O)NC1CCC1` [Compound 23, 2-(3-(5-(3-chlorophenyl)-1,3,4-thiadiazol-2-yl)-6-oxopyridazin-1(6H)-yl)-N-cyclobutylacetamide], the half-maximal inhibitory concentration (IC50) was not above 10 µM. Molecule `O=c1ccc(-c2nc(-c3ccc(Cl)cc3)no2)cn1Cc1ccc(Cl)c(Cl)c1` [Compound 124, 5-(3-(4-chlorophenyl)-1,2,4-oxadiazol-5-yl)-1-(3,4-dichlorobenzyl)pyridm-2(1H)-one] had an IC50 of more than 120 µM. Under `COCCn1nc(-c2nc(-c3ccc(F)c(F)c3)no2)ccc1=O` [Compound 75, 6-(3-(3,4-difluorophenyl)-1,2,4-oxadiazol-5-yl)-2-(2-methoxyethyl)pyridazin-3(2H)-one] stands 10 to 100 µM; under `Cc1cncc(Cn2cc(-c3nc(-c4cccc(C)c4)no3)ccc2=O)c1` [Compound 95, 1-((5-methylpyridin-3-yl)methyl)-5-(3-(m-tolyl)-1,2,4-oxadiazol-5-yl)pyridin-2(1H)-one], not above 10 µM; under `Cc1ccc(-c2ccc(=O)n(CC(=O)N[C@](C)(C#N)C(C)C)n2)s1` [Compound 36, (S)-N-(2-cyano-3-methylbutan-2-yl)-2-(3-(5-methylthiophen-2-yl)-6-oxopyridazin-1(6H)-yl)acetamide], 10 to 100 µM. As to `CCCNC(=O)Cn1nc(-c2nc(-c3cccnc3)no2)ccc1=O` [Compound 50, 2-(6-oxo-3-(3-(pyridin-3-yl)-1,2,4-oxadiazol-5-yl)pyridazin-1(6H)-yl)-N-propylacetamide], the IC50 lay in the range of 10 to 100 µM. Under `CCC(C)(C)NC(=O)Cn1nc(-c2ccc(C)s2)ccc1=O` [Compound 82, 2-(3-(5-methylthiophen-2-yl)-6-oxopyridazin-1(6H)-yl)-N-(tert-pentyl)acetamide] stands not above 10 µM; under `O=c1ccc(-c2cccs2)nn1Cc1cccc(Cl)c1` [Compound 56, 2-(3-chlorobenzyl)-6-(thiophen-2-yl)pyridazin-3(2H)-one], not above 10 µM. For `Cc1cccc(-c2noc(-c3ccc(=O)n(Cc4cccnc4)c3)n2)c1` [Compound 109, 1-(pyridin-3-ylmethyl)-5-(3-(m-tolyl)-1,2,4-oxadiazol-5-yl)pyridin-2(1H)-one], the IC50 was 10 to 100 µM. Consider `O=c1ccc(-n2cncn2)nn1Cc1csc(Br)c1` [Compound 80, 2-((5-bromothiophen-3-yl)methyl)-6-(1H-1,2,4-triazol-1-yl)pyridazin-3(2H)-one], for which the IC50 is 10 to 100 µM. The molecule `O=c1ccc(-c2nc(-c3cnccn3)no2)cn1Cc1ccccc1F` [Compound 116, 1-(2-fluorobenzyl)-5-(3-(pyrazin-2-yl)-1,2,4-oxadiazol-5-yl)pyridin-2(1H)-one] came in with a half-inhibitory concentration (IC50) of more than 120 µM.

For the molecule `Cc1ccc(-c2noc(-c3ccc(=O)n(Cc4cccc(F)c4)n3)n2)cc1` [Compound 71, 2-(3-fluorobenzyl)-6-(3-(p-tolyl)-1,2,4-oxadiazol-5-yl)pyridazin-3(2H)-one], the half-maximal inhibitory concentration (IC50) was more than 100 µM. `Cc1cccc(-c2noc(-c3ccc(=O)n(Cc4ccc(C#N)nc4)c3)n2)c1` [Compound 103, 5-((2-oxo-5-(3-(m-tolyl)-1,2,4-oxadiazol-5-yl)pyridin-1(2H)-yl)methyl)picolinonitrile] came in with a half-inhibitory concentration (IC50) not above 10 µM. In the case of `CCNC(=O)Cn1nc(-c2nc(-c3cccc(OC)c3)no2)ccc1=O` [Compound 4, N-ethyl-2-(3-(3-(3-methoxyphenyl)-1,2,4-oxadiazol-5-yl)-6-oxopyridazin-1(6H)-yl)acetamide], the IC50 was not above 10 µM. As to `O=c1ccc(-n2cncn2)nn1Cc1ccc(Cl)cc1` [Compound 79, 2-(4-chlorobenzyl)-6-(1H-1,2,4-triazol-1-yl)pyridazin-3(2H)-one], the IC50 lay within 10 to 100 µM. In turn, `Cc1cccc(-c2noc(-c3ccc(=O)n(Cc4cccnc4)c3)n2)c1` [Compound 94, 1-(pyridin-3-ylmethyl)-5-(3-(m-tolyl)-1,2,4-oxadiazol-5-yl)pyridin-2(1H)-one] registered a half-inhibitory concentration (IC50) not above 10 µM. `O=c1ccc(-c2nc(-c3ccncc3)no2)cn1Cc1ccc(Cl)cc1` [Compound 119, 1-(4-chlorobenzyl)-5-(3-(pyridin-4-yl)-1,2,4-oxadiazol-5-yl)pyridin-2(1H)-one]: the IC50 is more than 120 µM.
